Tests used:
[1] = molecular target: T1, Mitogen-activated protein kinase kinase kinase 20 (Homo sapiens, UniProt Q9NYL2); experiment: Inhibition of N-terminal GST-tagged recombinant human full-length ZAK expressed in baculovirus infected Sf9 insect cells using MBP as substrate after 30 mins by ADP-Glo assay
[2] = molecular target: Serine/threonine-protein kinase B-raf (Homo sapiens, UniProt P15056, V600E); experiment: Inhibition of recombinant human B-RAF V600E mutant using Ser/Thr3 as substrate after 1 hr by FRET-based Z'-Lyte assay
Serine/threonine-protein kinase B-raf, sequence (P15056 2-766 V600E limits assumed): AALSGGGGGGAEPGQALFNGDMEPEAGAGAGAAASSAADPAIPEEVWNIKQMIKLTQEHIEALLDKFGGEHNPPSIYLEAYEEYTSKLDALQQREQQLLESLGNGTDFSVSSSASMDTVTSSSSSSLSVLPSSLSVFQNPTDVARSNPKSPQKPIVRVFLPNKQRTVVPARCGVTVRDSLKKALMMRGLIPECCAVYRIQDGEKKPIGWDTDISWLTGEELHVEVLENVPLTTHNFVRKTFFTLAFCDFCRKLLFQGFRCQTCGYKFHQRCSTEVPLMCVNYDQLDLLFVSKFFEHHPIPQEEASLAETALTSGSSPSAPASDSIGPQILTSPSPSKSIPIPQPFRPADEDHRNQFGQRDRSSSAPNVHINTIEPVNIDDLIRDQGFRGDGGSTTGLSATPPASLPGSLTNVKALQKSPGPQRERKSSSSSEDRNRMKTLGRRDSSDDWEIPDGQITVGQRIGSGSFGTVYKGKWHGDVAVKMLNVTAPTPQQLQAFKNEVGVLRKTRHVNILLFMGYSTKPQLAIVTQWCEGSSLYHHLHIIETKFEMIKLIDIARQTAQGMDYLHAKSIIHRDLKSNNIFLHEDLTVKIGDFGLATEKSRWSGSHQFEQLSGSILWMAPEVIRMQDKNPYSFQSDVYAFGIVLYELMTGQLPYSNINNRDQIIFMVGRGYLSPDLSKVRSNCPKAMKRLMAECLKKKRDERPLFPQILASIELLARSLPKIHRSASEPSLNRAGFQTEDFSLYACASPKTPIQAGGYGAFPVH

[3] = molecular target: T2, Tyrosine-protein kinase ABL1 (Homo sapiens, UniProt P00519); experiment: Inhibition of human ABL1
T2 sequence (P00519 whole entry): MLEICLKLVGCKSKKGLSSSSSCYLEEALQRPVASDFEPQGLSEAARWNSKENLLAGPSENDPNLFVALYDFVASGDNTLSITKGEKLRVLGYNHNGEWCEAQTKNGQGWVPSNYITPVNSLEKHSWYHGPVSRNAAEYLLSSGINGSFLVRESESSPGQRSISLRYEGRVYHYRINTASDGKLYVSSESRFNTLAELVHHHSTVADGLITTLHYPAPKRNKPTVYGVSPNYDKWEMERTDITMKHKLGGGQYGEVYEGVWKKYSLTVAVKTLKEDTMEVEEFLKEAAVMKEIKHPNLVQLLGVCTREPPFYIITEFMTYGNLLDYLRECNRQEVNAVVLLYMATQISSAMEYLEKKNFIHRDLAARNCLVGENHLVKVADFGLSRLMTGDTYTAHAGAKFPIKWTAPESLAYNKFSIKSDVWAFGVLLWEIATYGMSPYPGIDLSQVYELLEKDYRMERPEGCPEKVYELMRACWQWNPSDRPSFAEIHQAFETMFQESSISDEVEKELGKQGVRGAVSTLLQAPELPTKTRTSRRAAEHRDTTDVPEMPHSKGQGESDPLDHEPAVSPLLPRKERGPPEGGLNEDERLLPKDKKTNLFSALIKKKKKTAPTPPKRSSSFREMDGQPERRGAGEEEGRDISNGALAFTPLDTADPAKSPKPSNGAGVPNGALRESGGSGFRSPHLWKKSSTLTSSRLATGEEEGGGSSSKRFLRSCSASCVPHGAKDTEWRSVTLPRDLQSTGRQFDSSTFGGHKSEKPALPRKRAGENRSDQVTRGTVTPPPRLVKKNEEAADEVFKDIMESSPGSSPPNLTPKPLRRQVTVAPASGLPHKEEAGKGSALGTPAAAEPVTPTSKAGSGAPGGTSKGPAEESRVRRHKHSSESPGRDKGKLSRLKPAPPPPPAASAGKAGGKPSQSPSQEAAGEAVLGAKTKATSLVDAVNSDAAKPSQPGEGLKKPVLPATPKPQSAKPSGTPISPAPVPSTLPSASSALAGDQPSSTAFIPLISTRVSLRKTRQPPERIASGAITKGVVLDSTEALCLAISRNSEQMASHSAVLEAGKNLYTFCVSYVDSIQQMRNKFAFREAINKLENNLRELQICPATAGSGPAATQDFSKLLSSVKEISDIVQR

[4] = molecular target: T1, Mitogen-activated protein kinase kinase kinase 20; experiment: Binding affinity to ATP-binding site of human ZAK expressed in Escherichia coli by active site-dependent competition binding assay
[5] = molecular target: T1, Mitogen-activated protein kinase kinase kinase 20; experiment: Binding affinity to human ZAK
[6] = molecular target: T2, Tyrosine-protein kinase ABL1; experiment: Binding affinity to human ABL1
[7] = molecular target: Tyrosine-protein kinase Blk (Homo sapiens, UniProt P51451); experiment: Binding affinity to human BLK
Tyrosine-protein kinase Blk, sequence (P51451 whole entry): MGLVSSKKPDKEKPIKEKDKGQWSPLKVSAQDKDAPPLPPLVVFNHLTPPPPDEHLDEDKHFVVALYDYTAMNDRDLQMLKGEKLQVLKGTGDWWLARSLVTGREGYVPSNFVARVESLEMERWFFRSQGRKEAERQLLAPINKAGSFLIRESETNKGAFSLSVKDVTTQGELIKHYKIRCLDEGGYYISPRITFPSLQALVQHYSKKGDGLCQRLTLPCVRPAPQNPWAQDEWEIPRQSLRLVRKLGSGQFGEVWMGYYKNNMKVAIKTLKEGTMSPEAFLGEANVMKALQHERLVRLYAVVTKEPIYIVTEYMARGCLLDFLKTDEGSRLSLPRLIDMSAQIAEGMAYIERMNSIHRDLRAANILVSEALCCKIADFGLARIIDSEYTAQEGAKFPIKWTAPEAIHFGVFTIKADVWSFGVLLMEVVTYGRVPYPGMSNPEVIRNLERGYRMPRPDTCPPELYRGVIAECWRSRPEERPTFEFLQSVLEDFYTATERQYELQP

[8] = molecular target: Receptor-type tyrosine-protein kinase FLT3 (Homo sapiens, UniProt P36888, F691L); experiment: Binding affinity to human FLT3 F691L mutant
[9] = molecular target: Tyrosine-protein kinase Lck (Homo sapiens, UniProt P06239); experiment: Binding affinity to human LCK
Tyrosine-protein kinase Lck, sequence (P06239 whole entry, the tested form may be a part): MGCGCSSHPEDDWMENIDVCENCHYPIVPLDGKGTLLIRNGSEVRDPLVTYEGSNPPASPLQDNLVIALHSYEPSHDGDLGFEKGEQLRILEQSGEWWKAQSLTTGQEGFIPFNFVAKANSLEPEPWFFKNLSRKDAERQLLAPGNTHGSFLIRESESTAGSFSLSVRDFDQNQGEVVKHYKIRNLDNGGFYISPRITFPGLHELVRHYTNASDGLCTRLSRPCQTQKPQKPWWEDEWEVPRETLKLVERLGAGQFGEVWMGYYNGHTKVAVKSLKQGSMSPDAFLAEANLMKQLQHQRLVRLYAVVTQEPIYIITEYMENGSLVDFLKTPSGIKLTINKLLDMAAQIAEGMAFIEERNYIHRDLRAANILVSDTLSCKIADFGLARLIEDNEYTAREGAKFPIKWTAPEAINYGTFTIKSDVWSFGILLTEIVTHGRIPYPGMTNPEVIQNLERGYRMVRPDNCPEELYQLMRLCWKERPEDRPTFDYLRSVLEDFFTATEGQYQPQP

LIM domain kinase 1 = LIM domain kinase 1 (Homo sapiens, UniProt P53667); experiment: Binding affinity to human LIMK1
LIM domain kinase 1, sequence (P53667 whole entry, the tested form may be a part): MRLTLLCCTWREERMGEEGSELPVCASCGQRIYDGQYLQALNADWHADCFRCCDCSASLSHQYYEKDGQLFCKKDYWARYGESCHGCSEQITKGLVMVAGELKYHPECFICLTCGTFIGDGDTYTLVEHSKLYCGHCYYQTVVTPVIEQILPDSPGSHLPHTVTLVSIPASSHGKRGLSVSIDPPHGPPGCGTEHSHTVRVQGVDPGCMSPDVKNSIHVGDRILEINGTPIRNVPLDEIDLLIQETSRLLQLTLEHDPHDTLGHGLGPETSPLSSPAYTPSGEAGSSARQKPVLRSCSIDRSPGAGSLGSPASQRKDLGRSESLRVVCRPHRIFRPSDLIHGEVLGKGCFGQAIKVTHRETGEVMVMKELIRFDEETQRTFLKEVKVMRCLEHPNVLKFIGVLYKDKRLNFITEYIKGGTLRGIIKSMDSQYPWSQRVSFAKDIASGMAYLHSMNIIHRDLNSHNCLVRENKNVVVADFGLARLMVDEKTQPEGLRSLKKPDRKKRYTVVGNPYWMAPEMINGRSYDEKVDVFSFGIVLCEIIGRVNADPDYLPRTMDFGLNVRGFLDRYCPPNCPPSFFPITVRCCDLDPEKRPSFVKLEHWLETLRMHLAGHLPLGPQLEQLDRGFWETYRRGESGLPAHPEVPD

LIM domain kinase 2 = LIM domain kinase 2 (Homo sapiens, UniProt P53671); experiment: Binding affinity to human LIMK2
LIM domain kinase 2, sequence (P53671 whole entry, the tested form may be a part): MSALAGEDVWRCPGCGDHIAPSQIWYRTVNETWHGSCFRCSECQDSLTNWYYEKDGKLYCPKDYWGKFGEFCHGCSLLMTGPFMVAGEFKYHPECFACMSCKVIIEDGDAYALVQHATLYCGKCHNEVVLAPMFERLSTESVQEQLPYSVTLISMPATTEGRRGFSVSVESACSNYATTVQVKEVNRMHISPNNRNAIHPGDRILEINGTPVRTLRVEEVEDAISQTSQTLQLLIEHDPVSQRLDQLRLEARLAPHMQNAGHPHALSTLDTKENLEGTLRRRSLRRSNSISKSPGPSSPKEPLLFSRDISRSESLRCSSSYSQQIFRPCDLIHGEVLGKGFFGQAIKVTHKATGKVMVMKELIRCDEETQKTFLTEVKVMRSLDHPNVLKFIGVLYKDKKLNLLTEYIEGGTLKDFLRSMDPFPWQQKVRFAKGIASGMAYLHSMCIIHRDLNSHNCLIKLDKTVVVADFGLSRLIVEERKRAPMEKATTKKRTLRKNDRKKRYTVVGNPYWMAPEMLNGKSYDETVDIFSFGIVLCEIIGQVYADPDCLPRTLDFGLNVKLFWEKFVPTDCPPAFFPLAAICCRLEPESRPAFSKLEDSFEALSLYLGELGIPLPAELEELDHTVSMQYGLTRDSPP

[10] = molecular target: Receptor-interacting serine/threonine-protein kinase 2 (Homo sapiens, UniProt O43353); experiment: Binding affinity to human RIPK2
[11] = AUC (0 to infinity) in Sprague-Dawley rat at 10 mg/kg, po by HPLC/MS analysis; assay type: ADME, organism-based; set-up: dose 10 mg/kg, route oral, time infinity; conditions: in vivo
[12] = AUC (0 to t) in Sprague-Dawley rat at 10 mg/kg, po by HPLC/MS analysis; assay type: ADME, organism-based; conditions: in vivo
[13] = Half life in Sprague-Dawley rat at 10 mg/kg, po by HPLC/MS analysis; assay type: ADME, organism-based; conditions: in vivo
[14] = Cmax in Sprague-Dawley rat at 10 mg/kg, po by HPLC/MS analysis; assay type: ADME, organism-based; set-up: dose 10 mg/kg, route oral; conditions: in vivo
[15] = Oral bioavailability in Sprague-Dawley rat at 10 mg/kg by HPLC/MS analysis; assay type: ADME, organism-based; conditions: in vivo
[16] = AUC (0 to infinity) in Sprague-Dawley rat at 2.5 mg/kg, iv by HPLC/MS analysis; assay type: ADME, organism-based; set-up: dose 2.5 mg/kg, route intravenous, time infinity; conditions: in vivo
[17] = AUC (0 to t) in Sprague-Dawley rat at 2.5 mg/kg, iv by HPLC/MS analysis; assay type: ADME, organism-based; conditions: in vivo
[18] = Half life in Sprague-Dawley rat at 2.5 mg/kg, iv by HPLC/MS analysis; assay type: ADME, organism-based; conditions: in vivo
[19] = Cmax in Sprague-Dawley rat at 2.5 mg/kg, iv by HPLC/MS analysis; assay type: ADME, organism-based; set-up: dose 2.5 mg/kg, route intravenous; conditions: in vivo
[20] = Clearance in Sprague-Dawley rat at 2.5 mg/kg, iv by HPLC/MS analysis; assay type: ADME, organism-based; conditions: in vivo
Rattus norvegicus [21] = experiment: Anti-hypertrophic cardiomyopathy activity in SHR rat assessed as whole heart weight level elevation at 2.5 mg/kg, po once daily for 8 weeks (reference value: 1.23 +/- 0.006 g); assay type: functional
Rattus norvegicus [22] = experiment: Anti-hypertrophic cardiomyopathy activity in SHR rat assessed as left ventricular weight level elevation at 2.5 mg/kg, po once daily for 8 weeks (reference value: 0.89 +/- 0.005 g); assay type: functional
Rattus norvegicus [23] = experiment: Anti-hypertrophic cardiomyopathy activity in SHR rat assessed as whole heart weight level elevation at 10 mg/kg, po once daily for 8 weeks (reference value: 1.23 +/- 0.006 g); assay type: functional
Rattus norvegicus [24] = experiment: Anti-hypertrophic cardiomyopathy activity in SHR rat assessed as left ventricular weight level elevation at 10 mg/kg, po once daily for 8 weeks (reference value: 0.89 +/- 0.005 g); assay type: functional
[25] = Effect on ZAKalpha protein expression in rat H9C2 cells by Western blot analysis

T1 sequence (Q9NYL2 whole entry): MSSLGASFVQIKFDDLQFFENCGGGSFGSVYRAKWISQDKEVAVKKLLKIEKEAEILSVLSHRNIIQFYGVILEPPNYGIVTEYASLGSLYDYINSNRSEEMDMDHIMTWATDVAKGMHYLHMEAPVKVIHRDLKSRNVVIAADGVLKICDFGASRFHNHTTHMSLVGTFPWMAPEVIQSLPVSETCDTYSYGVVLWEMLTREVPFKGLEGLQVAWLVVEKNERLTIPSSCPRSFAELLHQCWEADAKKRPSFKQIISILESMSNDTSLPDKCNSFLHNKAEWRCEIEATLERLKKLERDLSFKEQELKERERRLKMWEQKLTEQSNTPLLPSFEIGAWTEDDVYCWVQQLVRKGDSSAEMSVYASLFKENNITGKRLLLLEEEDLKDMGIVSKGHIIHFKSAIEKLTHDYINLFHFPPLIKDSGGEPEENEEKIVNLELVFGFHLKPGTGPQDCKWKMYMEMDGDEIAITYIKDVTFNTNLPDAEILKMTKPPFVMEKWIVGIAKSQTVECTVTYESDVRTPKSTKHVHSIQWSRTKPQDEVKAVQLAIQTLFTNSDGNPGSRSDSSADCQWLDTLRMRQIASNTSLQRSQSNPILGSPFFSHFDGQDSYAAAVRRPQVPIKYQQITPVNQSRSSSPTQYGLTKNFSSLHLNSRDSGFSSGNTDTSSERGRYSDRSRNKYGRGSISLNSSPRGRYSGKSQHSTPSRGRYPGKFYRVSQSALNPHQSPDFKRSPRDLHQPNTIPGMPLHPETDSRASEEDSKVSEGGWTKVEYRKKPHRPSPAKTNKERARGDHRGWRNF

COc1n[nH]c2ncc(C#Cc3c(F)ccc(NS(=O)(=O)c4cccc(Cl)c4)c3F)cc12
IC50 [1]: 14.7 nM
IC50 [2]: > 1000 nM

COc1n[nH]c2ncc(-c3cn(-c4c(F)ccc(NC(=O)Cc5cccc(Cl)c5)c4F)nn3)cc12
IC50 [1]: 85.7 nM
IC50 [2]: 83.1 nM

COc1n[nH]c2ncc(-c3cn(-c4c(F)ccc(NS(=O)(=O)c5ccccc5)c4F)nn3)cc12
IC50 [1]: 3.8 nM
IC50 [2]: 39 nM

COc1n[nH]c2ncc(-c3cn(-c4c(F)ccc(NS(=O)(=O)c5ccc6ccccc6c5)c4F)nn3)cc12
IC50 [1]: 4.5 nM
IC50 [2]: 856 nM

COc1n[nH]c2ncc(-c3cn(-c4c(F)ccc(NS(=O)(=O)c5cccc(C(C)C)c5)c4F)nn3)cc12
IC50 [1]: 6.9 nM
IC50 [2]: 190 nM

COc1n[nH]c2ncc(-c3cn(-c4c(F)ccc(NS(=O)(=O)c5cccc(-c6ccccc6)c5)c4F)nn3)cc12
IC50 [3]: 156 nM
IC50 [1]: 4 nM
IC50 [2]: > 1000 nM
Kd [4]: 8 nM
Kd [5]: 8 nM
Kd [6]: 15 nM
Kd [7]: 190 nM
Kd [8]: 530 nM
Kd [9]: 160 nM
Kd (LIM domain kinase 1): 23 nM
Kd (LIM domain kinase 2): 63 nM
Kd [10]: 57 nM
AUC(0-inf) [11]: 71800 ng·h/mL
AUC(0-t) [12]: 71600 ng·h/mL
half-life [13]: 1.7 h
Cmax [14]: 16400 ng/mL
bioavailability [15]: 65.3%
AUC(0-inf) [16]: 27900 ng·h/mL
AUC(0-t) [17]: 27400 ng·h/mL
half-life [18]: 1.6 h
Cmax [19]: 34200 ng/mL
clearance [20]: 1.53 mL/min/kg
Activity (Rattus norvegicus [21]): 1.18 g
Activity (Rattus norvegicus [22]): 0.82 g
Activity (Rattus norvegicus [23]): 1.13 g
Activity (Rattus norvegicus [24]): 0.78 g
Activity [25]: Non-Toxic

COc1n[nH]c2ncc(-c3nnc(-c4c(F)ccc(NS(=O)(=O)c5cccc(Cl)c5)c4F)o3)cc12
IC50 [1]: 63.3 nM
IC50 [2]: > 1000 nM

COc1n[nH]c2ncc(-c3cn(-c4c(F)ccc(NS(=O)(=O)c5cccc(C)c5)c4F)nn3)cc12
IC50 [1]: 4.4 nM
IC50 [2]: 453 nM

Nc1ccc(-c2cn(-c3c(F)ccc(NS(=O)(=O)c4cccc(Cl)c4)c3F)nn2)cn1
IC50 [1]: 46.2 nM
IC50 [2]: > 1000 nM

COc1n[nH]c2ncc(-c3cn(-c4cc(NS(=O)(=O)c5cccc(Cl)c5)ccc4F)nn3)cc12
IC50 [1]: 5.7 nM
IC50 [2]: 334 nM

COc1n[nH]c2ncc(-c3ncc(-c4c(F)ccc(NS(=O)(=O)c5cccc(Cl)c5)c4F)[nH]3)cc12
IC50 [1]: 983 nM
IC50 [2]: > 1000 nM

COc1n[nH]c2ncc(-c3cn(-c4c(F)ccc(NS(=O)(=O)c5cccc6ccccc56)c4F)nn3)cc12
IC50 [1]: 4.2 nM
IC50 [2]: 126 nM

COc1n[nH]c2ncc(-c3nc(-c4c(F)ccc(NS(=O)(=O)c5cccc(Cl)c5)c4F)no3)cc12
IC50 [1]: 29 nM
IC50 [2]: > 1000 nM

COc1n[nH]c2ncc(-c3cn(-c4cccc(NS(=O)(=O)c5cccc(Cl)c5)c4)nn3)cc12
IC50 [1]: 24.7 nM
IC50 [2]: > 1000 nM

COc1n[nH]c2ncc(-c3cn(-c4c(F)ccc(NC(=O)c5cccc(Cl)c5)c4F)nn3)cc12
IC50 [1]: 54.3 nM
IC50 [2]: 11.4 nM

COc1n[nH]c2ncc(-c3cn(-c4c(F)ccc(NS(=O)(=O)c5cccc(Cl)c5)c4F)nn3)cc12
IC50 [1]: 1.9 nM
IC50 [2]: 198 nM

COc1cccc(S(=O)(=O)Nc2ccc(F)c(-n3cc(-c4cnc5[nH]nc(OC)c5c4)nn3)c2F)c1
IC50 [1]: 2.3 nM
IC50 [2]: 272 nM

COc1n[nH]c2ncc(-c3cn(-c4c(F)ccc(NC(=O)Nc5cccc(Cl)c5)c4F)nn3)cc12
IC50 [1]: 53 nM
IC50 [2]: 51.6 nM

COc1n[nH]c2ncc(-c3cn(-c4c(F)ccc(NS(=O)(=O)c5cccc(Br)c5)c4F)nn3)cc12
IC50 [1]: 2.1 nM
IC50 [2]: 272 nM

Nc1ncc(-c2cn(-c3c(F)ccc(NS(=O)(=O)c4cccc(Cl)c4)c3F)nn2)cn1
IC50 [1]: 8.9 nM
IC50 [2]: > 1000 nM

COc1n[nH]c2ncc(-c3cn(-c4cccc(NS(=O)(=O)c5cccc(Cl)c5)c4F)nn3)cc12
IC50 [1]: 3 nM
IC50 [2]: 795 nM

COc1n[nH]c2ncc(-c3cn(-c4c(F)ccc(NS(=O)(=O)c5cccc(C#N)c5)c4F)nn3)cc12
IC50 [1]: 3.3 nM
IC50 [2]: 470 nM

COc1n[nH]c2ncc(-c3cn(-c4c(Cl)ccc(NS(=O)(=O)c5cccc(Cl)c5)c4Cl)nn3)cc12
IC50 [1]: 413 nM
IC50 [2]: 436 nM
